Source: paper PMC6181319, “Thermodynamic and computational analyses reveal the functional roles of the galloyl group of tea catechins in molecular recognition” (PLoS ONE, 2018)
Like-named read-outs stand apart in the source and are kept apart here. Marks after values point to notes of the source that are not given here.

Legend:
[1] = molecular target: T1, human serum albumin (HSA) (Homo sapiens, UniProt P02768); experiment: Isothermal titration calorimetry (ITC) of binding of catechins and analogs to HSA; parameters: purchased Sigma-Aldrich Japan (Tokyo, Japan); conditions: for change of binding affinity with addition of 0.2 M NaCl: 0.2 M NaCl versus no NaCl
T1 sequence (P02768 25-609): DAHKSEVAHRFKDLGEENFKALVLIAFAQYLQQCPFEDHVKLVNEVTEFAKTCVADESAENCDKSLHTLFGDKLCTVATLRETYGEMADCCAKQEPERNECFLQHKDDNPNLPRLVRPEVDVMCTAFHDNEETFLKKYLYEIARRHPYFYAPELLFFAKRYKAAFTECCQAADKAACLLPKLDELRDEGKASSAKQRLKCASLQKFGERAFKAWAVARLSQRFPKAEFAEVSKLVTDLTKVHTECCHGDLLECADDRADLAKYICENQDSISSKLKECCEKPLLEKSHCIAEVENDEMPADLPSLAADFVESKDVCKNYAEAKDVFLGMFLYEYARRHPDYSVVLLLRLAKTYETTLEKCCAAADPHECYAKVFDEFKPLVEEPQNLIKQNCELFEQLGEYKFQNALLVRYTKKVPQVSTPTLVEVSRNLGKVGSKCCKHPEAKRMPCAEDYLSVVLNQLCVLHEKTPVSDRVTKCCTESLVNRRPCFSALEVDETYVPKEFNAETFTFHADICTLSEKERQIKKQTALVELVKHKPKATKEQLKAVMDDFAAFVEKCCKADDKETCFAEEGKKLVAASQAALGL
Method: The binding of the catechins and its analogs to HSA was examined in a VP-ITC instrument (Microcal Northampton, MA). […] The data were analyzed with the Origin software (ver. 7) by means of a single-binding-site model. The thermodynamic parameters were obtained from three replicate titrations, where the dilution heats of the ligands were subtracted.

[2] = molecular target: T1, human serum albumin (HSA); experiment: Differential scanning calorimetry (DSC), thermal stability of HSA–ligand complexes; conditions: for Tm: DSC, HSA 50 μM, ligand 500 μM, 50 mM sodium phosphate pH 6.8, HSA alone 68.6 ± 0.1; for ΔTm at 500 µM: human, pH 6.8
Method: The thermal stabilities of HSA and the HSA–ligand complexes were determined by differential scanning calorimetry in a VP-DSC autosampler instrument (GE Healthcare). The cell was heated from 303 to 363 K at a rate of 1 K min^−1. The concentrations of HSA and the ligands were 50 and 500 μM, respectively, in a buffer composed of 50 mM sodium phosphate (pH 6.8). The data analysis was carried out with the Origin software (ver. 7) using a two-state model.

[3] = Table 2, methylated catechin derivatives, ITC, 298 K
[4] = Table 2, methylated catechin derivatives, ITC, 298 K, 50 mM sodium phosphate pH 6.8
[5] = Table 2, methylated catechin derivatives, ITC, 298 K, 50 mM sodium phosphate pH 6.8, read-out: KD
[6] = S2 Table, NaCl 0.2 M, read-out: KD
[7] = Table 1, ITC, 298 K, 50 mM sodium phosphate pH 6.8
[8] = Table 1, ITC, 298 K, 50 mM sodium phosphate pH 6.8, HSA 50 μM, single-binding-site model
[9] = Table 1, ITC, 298 K, 50 mM sodium phosphate pH 6.8, read-out: KD

Q: How did the ΔG [1, 3] turn out when `COc1cc([C@H]2Oc3cc(O)cc(O)c3C[C@H]2OC(=O)c2cc(O)c(O)c(O)c2)cc(O)c1O` [EGCg-3′-O-Me, (−)-Epigallocatechin-3′-O-methylether gallate] was run?
A: -33.1 ± 0.42 kJ/mol

Q: And the ΔH [1, 3]?
A: -38.9 ± 1.7 kJ/mol

Q: And the “−TΔS” value [1, 3]?
A: 5.86 ± 1.3 kJ/mol

Q: And the “N (number of binding sites)” value [1, 4]?
A: 0.9 ± 0.1

Q: What about the Kd [1, 5] of the same molecule?
A: 1.6 ± 0.2 µM

Q: With `COc1cc(C(=O)O[C@@H]2Cc3c(O)cc(O)cc3O[C@@H]2c2cc(O)c(O)c(O)c2)cc(O)c1O` [EGCg-3′′-O-Me, (−)-epigallocatechin-3′′-O-methylether gallate] as the molecule, how does the N ([1]; S3 Table, temperature 288 K) read?
A: 1.1±0.1

Q: What about the ΔG ([1]; S3 Table, temperature 288 K) of the same molecule?
A: -37.2 ± 0.42 kJ/mol

Q: And the ΔH ([1]; S3 Table, temperature 288 K)?
A: -23.8 ± 5.02 kJ/mol

Q: What about the “−TΔS” value ([1]; S3 Table, temperature 288 K) of the same molecule?
A: -13.4 ± 5.02 kJ/mol

Q: And the Kd ([1]; S3 Table, temperature 288 K, read-out: KD)?
A: 0.19 ± 0.04 µM

Q: And the N ([1]; S3 Table, temperature 293 K)?
A: 1.0±0.1

Q: What about the ΔG ([1]; S3 Table, temperature 293 K) of the same molecule?
A: -38.9 ± 0.42 kJ/mol

Q: And the ΔH ([1]; S3 Table, temperature 293 K)?
A: -28.9 ± 7.11 kJ/mol

Q: What about the “−TΔS” value ([1]; S3 Table, temperature 293 K) of the same molecule?
A: -10 ± 7.11 kJ/mol

Q: What about the Kd ([1]; S3 Table, temperature 293 K, read-out: KD) of the same molecule?
A: 0.12 ± 0.02 µM

Q: What about the N ([1]; S3 Table, temperature 298 K) of the same molecule?
A: 1.0±0.1

Q: What about the ΔG ([1]; S3 Table, temperature 298 K) of the same molecule?
A: -39.3 ± 0.42 kJ/mol

Q: And the ΔH ([1]; S3 Table, temperature 298 K)?
A: -31 ± 3.8 kJ/mol

Q: What about the “−TΔS” value ([1]; S3 Table, temperature 298 K) of the same molecule?
A: -7.95 ± 3.8 kJ/mol

Q: What about the Kd ([1]; S3 Table, temperature 298 K, read-out: KD) of the same molecule?
A: 0.14 ± 0.02 µM

Q: And the N ([1]; S3 Table, temperature 303 K)?
A: 1.1±0.1

Q: What about the ΔG ([1]; S3 Table, temperature 303 K) of the same molecule?
A: -39.3 ± 0.84 kJ/mol

Q: What about the ΔH ([1]; S3 Table, temperature 303 K) of the same molecule?
A: -36.4 ± 2.1 kJ/mol

Q: What about the “−TΔS” value ([1]; S3 Table, temperature 303 K) of the same molecule?
A: -2.9 ± 1.7 kJ/mol

Q: What about the Kd ([1]; S3 Table, temperature 303 K, read-out: KD) of the same molecule?
A: 0.16 ± 0.04 µM

Q: What about the ΔG [1, 3] of the same molecule?
A: -39.3 ± 0.42 kJ/mol

Q: And the ΔH [1, 3]?
A: -33.1 ± 3.8 kJ/mol

Q: And the “N (number of binding sites)” value [1, 4]?
A: 1.0 ± 0.1

Q: And the Kd [1, 5]?
A: 0.14 ± 0.02 µM

Q: And the Kd ([1]; human, human serum albumin (HSA) 50 µM in buffer, pH 6.8, Table 2, methylated catechin derivatives, ITC, 298 K, 50 mM sodium phosphate pH 6.8, read-out: KD)?
A: 0.2 µM

Q: And the “ΔCp (change in heat capacity)” value ([1]; slope of ΔH versus temperature, 288 to 303 K)?
A: −195 cal mol^−1 K^−1

Q: What does the source list for `COc1c(O)cc([C@H]2Oc3cc(O)cc(O)c3C[C@H]2OC(=O)c2cc(O)c(O)c(O)c2)cc1O` [EGCg-4′-O-Me, (−)-epigallocatechin-4′-O-methylether gallate]?
A: ΔG [1, 3]: -33.1 ± 0.42 kJ/mol; ΔH [1, 3]: -29.3 ± 0.42 kJ/mol; −TΔS [1, 3]: -3.3 ± 0.42 kJ/mol; N (number of binding sites) [1, 4]: 0.9 ± 0.1; Kd [1, 5]: 1.7 ± 0.1 µM

Q: Which results are given for `COc1c(O)cc(C(=O)O[C@@H]2Cc3c(O)cc(O)cc3O[C@@H]2c2cc(O)c(O)c(O)c2)cc1O` [EGCg-4′′-O-Me, (−)-epigallocatechin-4′′-O-methylether gallate]?
A: ΔG [1, 3]: -34.3 ± 0.42 kJ/mol; ΔH [1, 3]: -41 ± 0.42 kJ/mol; −TΔS [1, 3]: 6.69 ± 0.42 kJ/mol; N (number of binding sites) [1, 4]: 1.0 ± 0.1; Kd [1, 5]: 1 ± 0.1 µM

Q: How did the “change of binding affinity with addition of 0.2 M NaCl” value ([1]; ITC) turn out when `CCOC(=O)c1cc(O)c(O)c(O)c1` [EtGa, Ethyl gallate] was run?
A: increased

Q: And the Kd ([1]; S2 Table, NaCl 0 M, read-out: KD)?
A: 45.7 µM

Q: And the Kd [1, 6]?
A: 16.6 µM

Q: And the ΔH/ΔG ([1]; Table 1, ITC, 298 K)?
A: 24%

Q: And the ΔG [1, 7]?
A: -24.7 ± 1.3 kJ/mol

Q: What about the ΔH [1, 7] of the same molecule?
A: -5.86 ± 0.42 kJ/mol

Q: What about the “−TΔS” value [1, 7] of the same molecule?
A: -18.8 ± 1.7 kJ/mol

Q: What about the “N (number of binding sites)” value [1, 8] of the same molecule?
A: 1.0 ^b

Q: What about the Kd [1, 9] of the same molecule?
A: 46 ± 23 µM

Q: Which Tm [2] does the source give for `Oc1cc(O)c2c(c1)O[C@@H](c1cc(O)c(O)c(O)c1)[C@H](O)C2` [GC, (−)-gallocatechin] here?
A: 69.3 ± 0.3 °C

Q: What about the ΔTm at 500 µM [2] of the same molecule?
A: 0.7 °C

Q: What about the Kd ([1]; KD, S1 Table, ITC binding affinity listed beside Tm) of the same molecule?
A: 52 ± 16 µM

Q: And the Kd ([1]; KD, Table 1, ITC, 298 K, 50 mM sodium phosphate pH 6.8)?
A: 52 ± 16 µM

Q: And the ΔH/ΔG ([1]; Table 1, ITC, 298 K)?
A: 19%

Q: And the ΔG [1, 7]?
A: -24.3 ± 0.84 kJ/mol

Q: What about the ΔH [1, 7] of the same molecule?
A: -4.6 ± 2.1 kJ/mol

Q: What about the “−TΔS” value [1, 7] of the same molecule?
A: -19.7 ± 2.9 kJ/mol

Q: And the “N (number of binding sites)” value [1, 8]?
A: 1.0 ^b

Q: With `O=C(O[C@@H]1Cc2c(O)cc(O)cc2O[C@H]1c1cc(O)c(O)c(O)c1)c1cc(O)c(O)c(O)c1` [GCg, (−)-gallocatechin gallate] as the molecule, how does the Tm [2] read?
A: 73.3 ± 0.2 °C

Q: And the ΔTm at 500 µM ([2]; human serum albumin (HSA) 50 µM in buffer)?
A: 4.6 °C

Q: And the “change of binding affinity with addition of 0.2 M NaCl” value ([1]; ITC)?
A: decreased

Q: And the “thermodynamic profile of binding (enthalpy-driven or entropy-driven)” value ([1]; ITC, 298 K)?
A: entropy-driven

Q: What about the Kd ([1]; S1 Table, ITC binding affinity listed beside Tm, read-out: KD) of the same molecule?
A: 8.8 ± 3.4 µM

Q: And the Kd [1, 6]?
A: 18.6 µM

Q: And the ΔH/ΔG ([1]; Table 1, ITC, 298 K)?
A: 43%

Q: What about the ΔG [1, 7] of the same molecule?
A: -28.9 ± 0.84 kJ/mol

Q: And the ΔH [1, 7]?
A: -12.6 ± 0.42 kJ/mol

Q: What about the “−TΔS” value [1, 7] of the same molecule?
A: -16.3 ± 1.3 kJ/mol

Q: What about the “N (number of binding sites)” value [1, 8] of the same molecule?
A: 1.2 ± 0.2

Q: What about the Kd [1, 9] of the same molecule?
A: 8.8 ± 3.4 µM
